Experimental data published in US20250262201A1, “COMPOUNDS AND METHODS USEFUL FOR STABILIZING PHENYLALANINE HYDROXYLASE MUTATIONS” (Agios Pharmaceuticals, Inc., priority 2022, published 2025).

target: T1, human PAH with the R408W mutation (Homo sapiens, UniProt P00439, R408W); assay: Cell Based Phenylalanine Flux Assay; design: scale not given here; conditions: A375 R408W cells, 24 hrs with compound, then 20 μM sepiapterin and 800 μM 13C9,15N-Phenylalanine for 4 hours; 13C-Tyrosine by LC-MS; average where tested multiple times
T1 construct: expressed in transfected cells
T1 sequence (P00439 1-452 R408W): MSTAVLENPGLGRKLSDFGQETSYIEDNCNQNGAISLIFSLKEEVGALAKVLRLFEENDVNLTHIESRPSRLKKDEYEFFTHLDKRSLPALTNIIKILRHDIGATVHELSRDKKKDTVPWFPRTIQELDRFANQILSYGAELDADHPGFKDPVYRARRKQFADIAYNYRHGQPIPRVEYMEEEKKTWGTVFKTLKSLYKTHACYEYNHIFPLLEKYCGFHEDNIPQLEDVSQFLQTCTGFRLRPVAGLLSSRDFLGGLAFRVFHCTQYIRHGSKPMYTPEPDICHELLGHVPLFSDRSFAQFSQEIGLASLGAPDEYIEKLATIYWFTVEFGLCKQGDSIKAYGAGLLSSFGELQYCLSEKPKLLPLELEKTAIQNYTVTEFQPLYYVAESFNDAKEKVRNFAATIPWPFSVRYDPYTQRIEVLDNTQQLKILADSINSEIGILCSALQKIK

AC50	Compound
E, E	CC1CN(C(=O)c2nnc(N3CCN(C)CC3)o2)C(c2cc3ccccc3cn2)c2nc[nH]c21 [(4S, 7R) diastereomer of 3-[7-methyl-5-[5-(4-methylpiperazin]

same assay, conditions: A375 R408W cells, 24 hrs with compound, then 20 μM sepiapterin and 800 μM 13C9,15N-Phenylalanine for 4 hours; 13C-Tyrosine by LC-MS; average where tested multiple times; read-out: AC50

AC50 [µM]	Compound
1 to 5	O=C(C1CN(c2ccccn2)C1)N1CCc2[nH]cnc2C1c1cc2ccccc2cn1 (single isomer, unassigned)
1 to 5	CC1CN(C(=O)c2nnc(N(C)C)o2)C(c2cc3ccccc3cn2)c2nc[nH]c21 (stereo not drawn)
1 to 5	CC1CN(C(=O)c2nnc(C(C)(C)O)o2)C(c2cc3ccccc3cn2)c2nc[nH]c21 (stereo not drawn)
> 5	CC1CN(C(=O)c2cnn3cc(CN(C)C)ccc23)C(c2cc3ccccc3cn2)c2nc[nH]c21 (stereo not drawn)
1 to 5	O=C(c1cnn2ccccc12)N1CCc2[nH]cnc2C1c1ccc2ccccc2n1 (stereo not drawn)
1 to 5	O=C(Cc1coc(C(F)F)n1)N1CCc2nc[nH]c2C1c1cn2ccccc2n1 (stereo not drawn)
> 5	CN(C)c1nnc(C(=O)N2CCc3[nH]cnc3C2c2ccc3ccccc3n2)o1 (stereo not drawn)
1 to 5	O=C(c1cnc(C(F)F)s1)N1CCc2[nH]cnc2C1c1cn2ccccc2n1 (stereo not drawn)
1 to 5	O=C(c1nnc(-c2ncccn2)o1)N1CCc2[nH]cnc2C1c1ncc2ccccc2n1 (stereo not drawn)
0.5 to 1	CC1CN(C(=O)c2oc(-c3ccccn3)nc2C(F)(F)F)C(c2cc3ccccc3cn2)c2nc[nH]c21 (stereo not drawn)
1 to 5	O=C(c1ocnc1C(F)F)N1CCc2[nH]cnc2C1c1cc2ccccc2nn1 (stereo not drawn)
> 5	CC1CN(C(=O)c2nnc(N3CC(F)C3)o2)C(c2cc3ccccc3cn2)c2nc[nH]c21 (stereo not drawn)
1 to 5	O=C(CCc1nccs1)N1CCc2[nH]cnc2C1c1cn2ccccc2n1 (stereo not drawn)
1 to 5	Cc1nc(N)oc1C(=O)N1CCc2[nH]cnc2C1c1ccc2ccccc2n1 (stereo not drawn)
> 5	O=C(c1oc(-c2ccccn2)nc1C1CC1)N1CCCc2[nH]cnc2C1c1ccc2ccccc2n1 (stereo not drawn)
1 to 5	CC(C)(O)c1nnc(C(=O)N2CCc3[nH]cnc3C2c2ncc3ccccc3n2)o1 (stereo not drawn)
1 to 5	O=C(c1nnc(NC2CC2)o1)N1CCc2[nH]cnc2C1c1ccc2ccccc2n1 (stereo not drawn)
1 to 5	O=C(C1CN(CC(F)(F)F)C1)N1CCc2[nH]cnc2C1c1ccc2ccccc2n1 (stereo not drawn)

same assay, conditions: A375 cells expressing human R408W PAH; 24 hrs compound incubation; 13C-Tyrosine by LC-MS; average where tested multiple times; read-out: AC50

Compound	AC50 [µM]
Cc1nc(-c2cnn(C)c2)oc1C(=O)N1CCc2[nH]cnc2[C@H]1c1ccc2ccccc2n1 [Example 26]	< 0.5
O=C(c1ocnc1C(F)F)N1CCc2nc[nH]c2C1c1ccc2ccccc2n1 (stereo in doubt) [Example 51, (R)-(4-(difluoromethyl)oxazol-5-yl)(4-(quinolin-2-yl)-6,7-dihydro-3H-imidazo[4,5-c]pyridin-5(4H)-yl)methanone]	< 0.5
Cc1nc(C2CC2)oc1C(=O)N1CCc2[nH]cnc2C1c1ccc2ccccc2n1 (stereo in doubt) [Example 35, (R)-(2-cyclopropyl-4-methyloxazol-5-yl)(4-(quinolin-2-yl)-6,7-dihydro-1H-imidazo[4,5-c]pyridin-5(4H)-yl)methanone]	< 0.5

Continued, values first:

AC50 [µM]	Compound
< 0.5	O=C(c1nnc(C2CC2)o1)N1CCc2[nH]cnc2[C@H]1c1cc2ccccc2cn1 [Example 326, (R)-(5-cyclopropyl-1,3,4-oxadiazol-2-yl)(4-(isoquinolin-3-yl)-6,7-dihydro-1H-imidazo[4,5-c]pyridin-5(4H)-yl)methanone]
< 0.5	O=C(c1oc(-c2ccccn2)nc1C1CC1)N1CCc2[nH]cnc2[C@H]1c1cc2ccccc2cn1 [Example 377, (R)-(4-cyclopropyl-2-(pyridin-2-yl)oxazol-5-yl)(4-(isoquinolin-3-yl)-6,7-dihydro-1H-imidazo[4,5-c]pyridin-5(4H)-yl)methanone]
< 0.5	O=C(c1oc(C2CC2)nc1C(F)(F)F)N1CCc2[nH]cnc2[C@H]1c1cn2ccccc2n1 [Example 240, (R)-(2-cyclopropyl-4-(trifluoromethyl)oxazol-5-yl)(4-(imidazo[1,2-a]pyridin-2-yl)-6,7-dihydro-1H-imidazo[4,5-c]pyridin-5(4H)-yl)methanone]
> 5	O=C(c1nnc(-c2ccc(F)cc2F)o1)N1CCc2[nH]cnc2C1c1ccc2ccccc2n1 (stereo in doubt) [Example 76, (S)-(5-(2,4-difluorophenyl)-1,3,4-oxadiazol-2-yl)(4-(quinolin-2-yl)-6,7-dihydro-1H-imidazo[4,5-c]pyridin-5(4H)-yl)methanone]
> 5	O=C(c1cnc(C2(F)CCC2)s1)N1CCc2[nH]cnc2[C@@H]1c1cn2ccccc2n1 [Example 252, (S)-(2-(1-fluorocyclobutyl)thiazol-5-yl)(4-(imidazo[1,2-a]pyridin-2-yl)-6,7-dihydro-1H-imidazo[4,5-c]pyridin-5(4H)-yl)methanone]
1 to 5	O=C(c1cn(-c2ccccn2)nc1Cl)N1CCc2[nH]cnc2C1c1ccc2ccccc2n1 (stereo in doubt) [Example 110, (S)-(3-chloro-1-(pyridin-2-yl)-1H-pyrazol-4-yl)(4-(quinolin-2-yl)-6,7-dihydro-1H-imidazo[4,5-c]pyridin-5(4H)-yl)methanone]
1 to 5	Cn1cc(C(=O)N2CCc3[nH]cnc3[C@@H]2c2ccc3ccccc3n2)c(Cl)n1 [Example 87]
1 to 5	O=C(c1cnc(C2(F)CCC2)s1)N1CCc2[nH]cnc2[C@H]1c1cn2ccccc2n1 [Example 251, (R)-(2-(1-fluorocyclobutyl)thiazol-5-yl)(4-(imidazo[1,2-a]pyridin-2-yl)-6,7-dihydro-1H-imidazo[4,5-c]pyridin-5(4H)-yl)methanone]
< 0.5	Cc1nn(C)cc1-c1nnc(C(=O)N2CCc3[nH]cnc3[C@H]2c2cc3ccccc3cn2)o1 [Example 450, (R)-(5-(1,3-dimethyl-1H-pyrazol-4-yl)-1,3,4-oxadiazol-2-yl)(4-(isoquinolin-3-yl)-6,7-dihydro-1H-imidazo[4,5-c]pyridin-5(4H)-yl)methanone]
1 to 5	O=C(N1CCc2[nH]cnc2C1c1ccc2ccccc2n1)C(F)(F)C1(O)CCC1 (stereo in doubt) [Example 56, (S)-2,2-difluoro-2-(1-hydroxycyclobutyl)-1-(4-(quinolin-2-yl)-6,7-dihydro-1H-imidazo[4,5-c]pyridin-5(4H)-yl)ethanone]
< 0.5	O=C(c1nnc(-c2cnn(C(F)F)c2)o1)N1CCc2[nH]cnc2[C@H]1c1cc2ccccc2cn1 [Example 440, (R)-(5-(1-(difluoromethyl)-1H-pyrazol-4-yl)-1,3,4-oxadiazol-2-yl)(4-(isoquinolin-3-yl)-6,7-dihydro-1H-imidazo[4,5-c]pyridin-5(4H)-yl)methanone]
< 0.5	C[C@@H]1CN(C(=O)c2oc(C(C)(C)O)nc2C2CC2)[C@H](c2cc3ccccc3cn2)c2nc[nH]c21 [Example 402, (4-cyclopropyl-2-(2-hydroxypropan-2-yl)oxazol-5-yl)((4R,7R)-4-(isoquinolin-3-yl)-7-methyl-6,7-dihydro-1H-imidazo[4,5-c]pyridin-5(4H)-yl)methanone]
< 0.5	CC(C)(O)c1nc(Cl)c(C(=O)N2CCc3[nH]cnc3C2c2ccc3ccccc3n2)o1 (stereo in doubt) [Example 113, (R)-(4-chloro-2-(2-hydroxypropan-2-yl)oxazol-5-yl)(4-(quinolin-2-yl)-6,7-dihydro-1H-imidazo[4,5-c]pyridin-5(4H)-yl)methanone]
0.5 to 1	O=C(Cn1cncn1)N1CCc2[nH]cnc2[C@H]1c1cc2ccccc2cn1 [Example 369, (R)-1-(4-(isoquinolin-3-yl)-6,7-dihydro-1H-imidazo[4,5-c]pyridin-5(4H)-yl)-2-(1H-1,2,4-triazol-1-yl)ethanone]
< 0.5	CC(C)(C)c1ncc(C(=O)N2CCc3[nH]cnc3[C@H]2c2cc3ccccc3cn2)s1 [Example 316, (R)-(2-(tert-butyl)thiazol-5-yl)(4-(isoquinolin-3-yl)-6,7-dihydro-1H-imidazo[4,5-c]pyridin-5(4H)-yl)methanone]
1 to 5	C[C@H](O)c1nc(C(F)F)c(C(=O)N2CCc3[nH]cnc3C2c2ccc3ccccc3n2)o1 (stereo in doubt) [Example 121, (4-(difluoromethyl)-2-((S)-1-hydroxyethyl)oxazol-5-yl)((S)-4-(quinolin-2-yl)-6,7-dihydro-1H-imidazo[4,5-c]pyridin-5(4H)-yl)methanone]
1 to 5	O=C(C1CN(CC(F)(F)F)C1)N1CCc2[nH]cnc2[C@H]1c1cc2ccccc2cn1 [Example 420, (R)-(4-(isoquinolin-3-yl)-6,7-dihydro-1H-imidazo[4,5-c]pyridin-5(4H)-yl)(1-(2,2,2-trifluoroethyl)azetidin-3-yl)methanone]
< 0.5	O=C(c1nncs1)N1CCc2[nH]cnc2[C@H]1c1cc2ccccc2cn1 [Example 350, (R)-(4-(isoquinolin-3-yl)-6,7-dihydro-1H-imidazo[4,5-c]pyridin-5(4H)-yl)(1,3,4-thiadiazol-2-yl)methanone]
1 to 5	O=C(c1nnc(N2CCC(F)CC2)o1)N1CCc2[nH]cnc2[C@H]1c1ncc2ccccc2n1 [Example 159, (S)-(5-(4-fluoropiperidin-1-yl)-1,3,4-oxadiazol-2-yl)(4-(quinazolin-2-yl)-6,7-dihydro-1H-imidazo[4,5-c]pyridin-5(4H)-yl)methanone]
< 0.5	CC(C)(C)c1ncc(C(=O)N2CCc3[nH]cnc3[C@H]2c2cc3ccccc3cn2)o1 [Example 435, (R)-(2-(tert-butyl)oxazol-5-yl)(4-(isoquinolin-3-yl)-6,7-dihydro-1H-imidazo[4,5-c]pyridin-5(4H)-yl)methanone]
